The results in this text go back to the supplement of paper PMC10307832.

What all share (experiment): relative viability (nuclei count vs DMSO), 5 days (fraction); higher = more cells survive
Compound in the assay “Doxorubicin + Navitoclax”: COc1cccc2c1C(=O)c1c(O)c3c(c(O)c1C2=O)C[C@@](O)(C(=O)CO)C[C@@H]3O[C@H]1C[C@H](N)[C@H](O)[C@H](C)O1 [Doxorubicin] + CC1(C)CCC(c2ccc(Cl)cc2)=C(CN2CCN(c3ccc(C(=O)NS(=O)(=O)c4ccc(N[C@H](CCN5CCOCC5)CSc5ccccc5)c(S(=O)(=O)C(F)(F)F)c4)cc3)CC2)C1 [Navitoclax] (partner 0.5 µM)
The method, boiled down:
(§1)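 Dosing by pin tool came one day after lung cancer cell lines were seeded in 1536-well plates, using either one drug or a fixed anchor-drug dose plus five library-drug doses (not always all listed) in √10 steps. After 5 days, nuclei were counted on 4× images. Relative viability is treated-well nuclei count divided by vehicle-well nuclei count, and values are medians of duplicate plates.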

Compound in the assay “BAY61-3606 + Palbociclib”: COC1=C(C=C(C=C1)C2=CC3=NC=CN3C(=N2)NC4=C(C=CC=N4)C(=O)N)OC [BAY61-3606] + CC(=O)c1c(C)c2cnc(Nc3ccc(N4CCNCC4)cn3)nc2n(C2CCCC2)c1=O [Palbociclib] (partner 0.5 µM)
The method in brief:
as §1

Compound in the assay “Doxorubicin + Phenformin”: COc1cccc2c1C(=O)c1c(O)c3c(c(O)c1C2=O)C[C@@](O)(C(=O)CO)C[C@@H]3O[C@H]1C[C@H](N)[C@H](O)[C@H](C)O1 [Doxorubicin] + N=C(N)NC(=N)NCCc1ccccc1 [Phenformin] (partner 250 µM)
The method, boiled down: as §1

Compound in the assay “Doxorubicin + Vorinostat”: COc1cccc2c1C(=O)c1c(O)c3c(c(O)c1C2=O)C[C@@](O)(C(=O)CO)C[C@@H]3O[C@H]1C[C@H](N)[C@H](O)[C@H](C)O1 [Doxorubicin] + O=C(CCCCCCC(=O)Nc1ccccc1)NO [Vorinostat] (partner 1 µM)
The method, boiled down:
as §1

On to UMC-11, for which the relative viability worked out at 0.414 in the assay with Doxorubicin + Navitoclax (first compound 0.001 µM); 0.306 with Doxorubicin + Navitoclax (first compound 0.003162 µM); 0.323 with Doxorubicin + Navitoclax (first compound 0.01 µM); 0.229 with Doxorubicin + Navitoclax (first compound 0.03162 µM); 0.366 with Doxorubicin + Navitoclax (first compound 0.1 µM); 0.352 in the assay with BAY61-3606 + Palbociclib (first compound 0.02 µM). In addition, the relative viability with BAY61-3606 + Palbociclib (first compound 0.06325 µM) is 0.319; with BAY61-3606 + Palbociclib (first compound 0.2 µM), 0.304; in the assay with BAY61-3606 + Palbociclib (first compound 0.6325 µM), 0.361; with BAY61-3606 + Palbociclib (first compound 2 µM) it was 0.339; with Doxorubicin + Phenformin (first compound 0.001 µM), 0.307; with Doxorubicin + Phenformin (first compound 0.003162 µM), 0.247. For the same cell line, the relative viability stood at 0.313 in the assay with Doxorubicin + Phenformin (first compound 0.01 µM); 0.207 in the assay with Doxorubicin + Phenformin (first compound 0.03162 µM); 0.233 in the assay with Doxorubicin + Phenformin (first compound 0.1 µM); 0.52 with Doxorubicin + Vorinostat (first compound 0.001 µM); 0.354 in the assay with Doxorubicin + Vorinostat (first compound 0.003162 µM); 0.432 with Doxorubicin + Vorinostat (first compound 0.01 µM). The relative viability in the assay with Doxorubicin + Vorinostat (first compound 0.03162 µM) was 0.329; in the assay with Doxorubicin + Vorinostat (first compound 0.1 µM), 0.37.
